Literature values, collected in patent US9668986B2, “Ophthalmic, intra-articular or intravesical preparations containing N-acyl-ethanolamines” (EPITECH GROUP S.R.I., priority 2014, dated 2017).

Columns and labels:
[1] = target: cannabinoid receptors CB1 (Homo sapiens, UniProt P21554)
[2] = target: CB2 (Homo sapiens, UniProt P34972)
Sequence of CB2 (P34972 whole entry, species assumed): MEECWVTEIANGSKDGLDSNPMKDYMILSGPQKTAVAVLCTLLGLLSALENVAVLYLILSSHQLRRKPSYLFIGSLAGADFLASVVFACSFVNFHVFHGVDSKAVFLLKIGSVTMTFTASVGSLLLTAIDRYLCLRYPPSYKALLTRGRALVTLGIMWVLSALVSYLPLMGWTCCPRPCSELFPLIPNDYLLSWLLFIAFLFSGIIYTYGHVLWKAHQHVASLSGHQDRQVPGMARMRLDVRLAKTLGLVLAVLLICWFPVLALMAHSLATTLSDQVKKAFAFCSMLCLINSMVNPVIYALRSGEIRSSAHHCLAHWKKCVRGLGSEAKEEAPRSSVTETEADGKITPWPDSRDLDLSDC

Sequence of cannabinoid receptors CB1 (P21554 whole entry): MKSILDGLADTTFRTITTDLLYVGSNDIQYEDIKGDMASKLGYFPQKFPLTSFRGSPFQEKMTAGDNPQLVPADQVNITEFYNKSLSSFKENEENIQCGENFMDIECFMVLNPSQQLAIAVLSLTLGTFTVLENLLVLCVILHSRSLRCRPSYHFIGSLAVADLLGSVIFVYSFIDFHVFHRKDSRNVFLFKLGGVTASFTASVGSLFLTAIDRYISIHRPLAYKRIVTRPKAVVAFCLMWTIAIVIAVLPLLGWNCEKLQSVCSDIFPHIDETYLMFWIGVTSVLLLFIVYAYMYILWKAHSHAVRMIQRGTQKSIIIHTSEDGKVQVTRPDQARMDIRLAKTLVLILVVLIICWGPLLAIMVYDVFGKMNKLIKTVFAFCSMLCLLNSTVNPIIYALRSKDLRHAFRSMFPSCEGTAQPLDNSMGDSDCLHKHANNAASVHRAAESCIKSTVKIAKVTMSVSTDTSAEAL

Question: With `CCCCCCCCCCCCCCCC(=O)NCCO` [PEA, N-palmitoylethanolamine] as the molecule, how does the “affinity for CB1” value [1] read?
Answer: The value was “poor affinity”.

Question: And the water solubility?
Answer: The water solubility was “not water-soluble”.

Question: What about the “affinity for CB2” value [2] of the same molecule?
Answer: The value was “poor affinity”.
